Reference: ChEMBL document CHEMBL5236610, “A Comprehensive Overview of Small-Molecule Androgen Receptor Degraders: Recent Progress and Future Perspectives” (J Med Chem, 2022)

Experiments:
[1] = target: Protein cereblon/Androgen receptor (Homo sapiens, UniProt P10275+Q96SW2); assay: Protac activity at CRBN/Androgen receptor in human LNCaP cells assessed as Androgen receptor degradation incubated for 24 hrs; assay type: cell-based
CWR22R [2] = assay: Antitumor activity against human 22rv1 cells xenografted in mouse assessed as suppression of tumor growth at 100 mg/kg, po administered daily for 25 days relative to control; assay type: functional; conditions: time 25 day
PC-3 [3] = assay: Antitumor activity against human PC-3 cells xenografted in mouse assessed as reduction in tumor at 50 mg/kg in presence of bicalutamide relative to control; assay type: functional; design: scale not given: the % may be the effect or the level left
Androgen receptor [4] = target: T1, Androgen receptor (Homo sapiens, UniProt P10275); assay: Induction of degradation of AR LBD in human LNCaP cells; assay type: cell-based
T1 sequence (P10275 whole entry): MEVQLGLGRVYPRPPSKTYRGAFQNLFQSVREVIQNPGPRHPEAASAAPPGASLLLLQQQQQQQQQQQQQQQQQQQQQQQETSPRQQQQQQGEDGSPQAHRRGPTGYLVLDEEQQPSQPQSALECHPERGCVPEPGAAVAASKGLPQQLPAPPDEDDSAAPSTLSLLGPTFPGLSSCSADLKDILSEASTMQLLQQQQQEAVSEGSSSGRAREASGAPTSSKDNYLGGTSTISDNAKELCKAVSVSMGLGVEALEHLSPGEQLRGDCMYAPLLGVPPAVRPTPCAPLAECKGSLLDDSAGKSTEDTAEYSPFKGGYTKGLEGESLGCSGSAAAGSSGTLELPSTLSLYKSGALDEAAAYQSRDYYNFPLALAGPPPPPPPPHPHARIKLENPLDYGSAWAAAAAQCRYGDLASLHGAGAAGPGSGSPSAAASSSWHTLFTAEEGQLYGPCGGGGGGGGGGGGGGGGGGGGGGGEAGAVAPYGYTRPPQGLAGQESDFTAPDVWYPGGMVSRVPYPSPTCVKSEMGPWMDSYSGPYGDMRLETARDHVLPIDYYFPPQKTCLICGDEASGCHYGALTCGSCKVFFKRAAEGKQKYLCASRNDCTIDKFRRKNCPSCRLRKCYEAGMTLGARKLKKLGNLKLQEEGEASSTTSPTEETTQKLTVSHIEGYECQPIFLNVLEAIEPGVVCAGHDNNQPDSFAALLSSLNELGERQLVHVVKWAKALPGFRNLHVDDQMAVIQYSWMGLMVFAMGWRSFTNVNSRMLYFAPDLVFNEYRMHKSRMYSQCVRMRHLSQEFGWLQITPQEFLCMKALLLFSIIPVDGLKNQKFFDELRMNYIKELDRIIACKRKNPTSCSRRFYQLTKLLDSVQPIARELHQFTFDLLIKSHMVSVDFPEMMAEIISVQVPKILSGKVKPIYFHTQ

Androgen receptor [5] = target: T1, Androgen receptor; assay: Inhibition of AR LBD in human LNCaP cells; assay type: cell-based
Androgen receptor [6] = target: T1, Androgen receptor; assay: Inhibition of Androgen receptor (unknown origin)
LNCaP [7] = assay: Antitumor activity against human LNCaP cells xenografted in nude mouse assessed as decrease in tumor weight at 40 mg/kg via oral gavage for six days weekly for 70 days relative to control; assay type: functional; design: scale not given: the % may be the effect or the level left; conditions: time 70 day
in vitro = conditions: mouse, liver microsomes
Description: Metabolic stability in mouse liver microsomes assessed as half life by LC-MS/MS analysis

LNCaP [8] = assay: Antitumor activity against human LNCap cells xenografted in NSG mouse assessed as tumor growth inhibition at 100 mg/kg, sc relative to control; assay type: functional; conditions: read-out: TGI
LNCaP [9] = assay: Antiproliferative activity against human LNCap cells; assay type: functional, cell-based
CWR22R [10] = assay: Antiproliferative activity against human 22Rv1 cells; assay type: functional, cell-based
LNCaP C4-2B [11] = assay: Antiproliferative activity against human LNCaP C4-2B cells; assay type: functional, cell-based
PC-3 [12] = assay: Antiproliferative activity against human PC-3 cells; assay type: functional, cell-based
LNCaP [13] = assay: Antiproliferative activity against human LNCap cells incubated for 168 hrs by […] assay; assay type: functional, cell-based
VCaP = assay: Antiproliferative activity against human VCaP cells incubated for 168 hrs by […] assay; assay type: functional, cell-based
[14] = target: T2, Steroid 17-alpha-hydroxylase/17,20 lyase (Homo sapiens, UniProt P05093); assay: Inhibition of CYP17AI in human LNCaP cells; assay type: ADME, cell-based
T2 sequence (P05093 whole entry): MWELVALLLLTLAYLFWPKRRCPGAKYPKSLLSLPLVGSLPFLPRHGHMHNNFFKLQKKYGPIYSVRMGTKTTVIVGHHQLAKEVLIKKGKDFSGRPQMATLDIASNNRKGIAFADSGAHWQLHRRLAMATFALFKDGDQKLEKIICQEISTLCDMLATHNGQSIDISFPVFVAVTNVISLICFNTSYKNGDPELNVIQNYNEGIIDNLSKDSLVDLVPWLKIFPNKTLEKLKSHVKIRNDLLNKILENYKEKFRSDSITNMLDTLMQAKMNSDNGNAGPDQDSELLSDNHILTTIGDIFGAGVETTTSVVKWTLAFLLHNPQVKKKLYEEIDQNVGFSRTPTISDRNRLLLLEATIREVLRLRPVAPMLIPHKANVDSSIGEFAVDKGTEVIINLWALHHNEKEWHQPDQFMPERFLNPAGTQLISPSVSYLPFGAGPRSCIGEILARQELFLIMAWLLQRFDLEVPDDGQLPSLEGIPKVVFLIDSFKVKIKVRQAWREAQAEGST

[15] = target: T2, Steroid 17-alpha-hydroxylase/17,20 lyase; assay: Inhibition of CYP17AI in human 22Rv1 cells; assay type: ADME, cell-based
[16] = target: T3, von Hippel-Lindau disease tumor suppressor/Androgen receptor (Homo sapiens, UniProt P10275+P40337); assay: PROTAC activity at VHL/AR-V7 in human 22Rv1 cells assessed as induction of AR-V7 degradation incubated for 24 hrs by immunoblot assay; assay type: cell-based
Target sequence in this assay (P40337 whole entry, looked up, change not shown, one chain of several): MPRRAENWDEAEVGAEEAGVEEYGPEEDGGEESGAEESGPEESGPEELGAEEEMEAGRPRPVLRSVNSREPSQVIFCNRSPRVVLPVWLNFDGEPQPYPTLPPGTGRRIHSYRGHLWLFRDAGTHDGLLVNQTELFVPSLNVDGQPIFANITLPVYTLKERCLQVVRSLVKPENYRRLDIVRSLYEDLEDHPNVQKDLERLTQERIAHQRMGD

[17] = target: T3, von Hippel-Lindau disease tumor suppressor/Androgen receptor; assay: PROTAC activity at VHL/full length AR in human 22Rv1 cells assessed as induction of AR degradation incubated for 24 hrs by immunoblot assay; assay type: cell-based
Target sequence in this assay (P40337 whole entry, one chain of several): as the sequence (P40337 whole entry, looked up, change not shown, one chain of several) above

CWR22R [18] = assay: Antiproliferative activity against human 22Rv1 cells incubated for 24 hrs by CCK-8 assay; assay type: functional, cell-based; conditions: 22Rv1, 24 h
LNCaP C4-2 = assay: Antiproliferative activity against human C4-2 cells incubated for 24 hrs by CCK-8 assay; assay type: functional, cell-based; conditions: LNCaP C4-2, 24 h
DU-145 = assay: Antiproliferative activity against human DU-145 cells incubated for 24 hrs by CCK-8 assay; assay type: functional, cell-based; conditions: DU-145, 24 h
PC-3 [19] = assay: Antiproliferative activity against human PC-3 cells incubated for 24 hrs by CCK-8 assay; assay type: functional, cell-based; conditions: PC-3, 24 h
LNCaP C4-2B [20] = assay: Antiproliferative activity against human C4-2B cells; assay type: functional, cell-based
[21] = Downregulation of AR level in human LNCaP cells at 10 uM by Western blot analysis relative to control; assay type: functional
[22] = Downregulation of AR level in human CWR22Rv cells at 10 uM by Western blot analysis relative to control; assay type: functional
[23] = Downregulation of AR-Vs level in human LNCaP cells at 10 uM by Western blot analysis relative to control; assay type: functional
[24] = Downregulation of AR-Vs level in human CWR22Rv cells at 10 uM by Western blot analysis relative to control; assay type: functional
[25] = Antitumor activity in human CWR22rv cells xenografted NOD.CB17-PrkdcSCID/J mouse model assessed as inhibition of tumor growth at 10 mg/kg, ip relative to control; assay type: functional; design: scale not given: the % may be the effect or the level left
LNCaP [26] = assay: Antiproliferative activity against human LNCAP cells assessed as reduction in cell viability; assay type: functional, cell-based
CWR22R [27] = assay: Antiproliferative activity against human 22Rv1 cells assessed as reduction in cell viability; assay type: functional, cell-based
CWR22R [28] = assay: Antitumor activity against human 22Rv1 cells xenografted in BALB/c nude mouse assessed as reduction in tumor volume at 10 mg/kg administered daily by vernier caliper method relative control; assay type: functional; design: scale not given: the % may be the effect or the level left

Sequence of Protein cereblon/Androgen receptor (Q96SW2 whole entry, one chain of several): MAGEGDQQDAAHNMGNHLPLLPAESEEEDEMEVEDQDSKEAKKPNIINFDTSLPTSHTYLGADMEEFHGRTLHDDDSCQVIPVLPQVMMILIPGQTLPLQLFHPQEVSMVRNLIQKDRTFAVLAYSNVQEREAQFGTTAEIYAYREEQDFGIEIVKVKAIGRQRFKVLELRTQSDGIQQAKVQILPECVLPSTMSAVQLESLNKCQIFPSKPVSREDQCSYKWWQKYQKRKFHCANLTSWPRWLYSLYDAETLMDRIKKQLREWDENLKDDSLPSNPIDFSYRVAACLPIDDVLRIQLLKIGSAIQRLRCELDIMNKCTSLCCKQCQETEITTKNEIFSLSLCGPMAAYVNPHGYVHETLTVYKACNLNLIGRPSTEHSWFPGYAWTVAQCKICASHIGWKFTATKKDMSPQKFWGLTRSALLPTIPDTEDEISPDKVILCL

CC(O)(COc1ccc(OCCOCCOc2cccc3c2C(=O)N(C2CCC(=O)NC2=O)C3=O)cc1)C(=O)Nc1ccc(C#N)c(I)c1 (configuration not stated)
EC50 [1]: 5.21 µM

CC(C)c1cc2c(c(O)c1O)[C@@]1(C(=O)O)CCCC(C)(C)[C@@H]1CC2 [CARNOSIC ACID]
Activity (CWR22R [2]): 53%

C[C@H]1[C@H](OC(=O)CCC(=O)O)O[C@@H]2O[C@@]3(C)CC[C@H]4[C@H](C)CC[C@@H]1[C@@]24OO3 [ARTESUNATE]
Activity (PC-3 [3]): >95%

CC1(C)C(=O)N(c2ccc(C#N)c(C(F)(F)F)c2)C(=S)N1CCCC(=O)NCCOCCOC(=O)CC12CC3CC(CC(C3)C1)C2
EC50 (Androgen receptor [4]): 1 µM
IC50 (Androgen receptor [5]): 0.156 µM

Clc1ccc(-c2cnc3n2CCC3)cc1
IC50 (Androgen receptor [6]): 4.3 µM

CC(C)=CCC[C@](C)(O)[C@H]1CC[C@]2(C)[C@@H]1[C@H](O)C[C@@H]1[C@@]3(C)CC[C@H](O)C(C)(C)[C@@H]3CC[C@]12C
Activity (LNCaP [7]): 32.6%

CN(C[C@](C)(O)C(=O)Nc1ccc(C#N)c(C(F)(F)F)c1)c1ccc(C#N)c(-c2ccccc2)c1
half-life (in vitro): 1 min

C[C@](O)(Cn1ccc2cc(F)ccc21)C(=O)Nc1ccc(C#N)c(C(F)(F)F)c1
inhibition in vivo at 100 mg/kg (LNCaP [8]): 65%

COc1ccc2cc3[n+](cc2c1OC)CCc1cc2c(cc1-3)OCO2 [BERBERINE]
IC50 (LNCaP [9]): 3.4 µM
IC50 (CWR22R [10]): 12.7 µM
IC50 (LNCaP C4-2B [11]): 11.2 µM
IC50 (PC-3 [12]): 21.5 µM

CC1(C)C(=O)N(c2ccc(C#N)c(C(F)(F)F)c2)C(=S)N1CCCCOc1cccc2c1C(=O)N(C1CCC(=O)NC1=O)C2=O (configuration not stated)
IC50 (LNCaP [13]): 3.07 µM
IC50 (VCaP): 0.127 µM

C[C@]12CC[C@H](O)CC1=CC[C@@H]1[C@@H]2CC[C@]2(C)C(n3cnc4ccccc43)=CC[C@@H]12 [GALETERONE]
IC50 [14]: 3.55 µM
IC50 [15]: 0.0122 µM

Cc1ncsc1-c1ccc([C@H](C)NC(=O)[C@@H]2C[C@@H](O)CN2C(=O)[C@@H](NC(=O)CCCCNC(=O)COc2c(-c3csc(N4CCOCC4)n3)ccc(F)c2F)C(C)(C)C)cc1
EC50 [16]: 0.37 µM
EC50 [17]: 2 µM

COc1ccc(-c2cc(=O)c3c(OC)c(OC)c(OC)c(OC)c3o2)cc1OC [NOBILETIN]
IC50 (CWR22R [18]): 36.5 µM
IC50 (LNCaP C4-2): 30.3 µM
IC50 (DU-145): 144 µM
IC50 (PC-3 [19]): 123 µM

COc1ccc(C(=O)n2c(C)cc3cc(Cl)ccc32)cc1
IC50 (LNCaP C4-2B [20]): 1.09 µM

CCOc1ccc2c(c1OC(C)C)CCN(c1ccc(C(=O)Nc3cccc(C)n3)cn1)C2
Activity [21]: >90%
Activity [22]: >90%
Activity [23]: >90%
Activity [24]: >90%
Activity [25]: 65%

CC1(C)CC(NC(=O)[C@H](Cc2ccc(OCc3c(Cl)cccc3Cl)cc2)NC(=O)/C(=C\c2ccccc2)c2ccccc2)CC(C)(C)N1
IC50 (LNCaP [26]): 3 µM
IC50 (CWR22R [27]): 2.6 µM

COc1ccc(-n2nc3ccc(NC(=O)CO[N+](=O)[O-])cc3n2)cc1
Activity (CWR22R [28]): 82%
